From US7238781B2, “Plant defensin polynucleotides and methods of use thereof” (E. I. DuPont de Nemours and Company, priority 1999, dated 2007)

Assays:
Type in all cases: cell-based
[1] = test system: Sclerotinia sclerotiorum; assay: In vitro 96 well microtiter plate assay, inhibition of hyphal growth; details: 24 hours at 22° C., 2 replicates
Method: An in vitro assay was also performed in a 96 well microtiter plate to determine the activity of Pps-AMP1 mature peptide against Sclerotinia sclerotiorum. Test inoculum was started by inoculating ½ strength potato dextrose broth (PDB) liquid with a sterile loop of hyphae from a Sclerotinia culture propagated on ⅛ strength potato dextrose agar (PDA) plate. Liquid inoculum was held at room temperature (22° C.), without shaking, in the dark for 4 days, to allow sufficient growth of hyphae. The resulting suspension was macerated using a polytron tissue grinder. The sample was then diluted to the point of invisibility to the naked eye (observation under microscopy at 40× indicated the presence of hyphal fragments). […] […] Sclerotinia hyphae only, or ½ strength PDB only, were included as negative controls.

[2] = test system: Colletotrichum graminaria; assay: Bioactivity of Pps-AMP1 mature peptide against fungal pathogens (spore suspension in 1/2 strength PDB); details: concentration at which 90% of fungal growth is inhibited, 48 hour incubation at 28° C.
Method: (§1) The purified refolded and lyophilized Pps-AMP1 mature peptide was resuspended in dH2O to a final concentration of about 4 μg/μl. 12 μg of purified Pps-AMP1 mature peptide was added to 200 μl of ½ strength potato dextrose broth (PDB) containing a spore suspension of either Fusarium verticilloides, Colletotrichum graminaria, or Neurospora crassa containing 2500 spores/ml. […] A 0.5× dilution series for Pps-AMP1 mature peptide from 10 μM through to about 0.005 μM was prepared by removing 100 μl of the 10 μM stock and adding it to 100 μl of spore suspension (2500 spores/ml), mixing thoroughly to achieve a 5 μM Pps-AMP1 mature peptide concentration, transferring 100 μl of the 5 μM suspension to a fresh 100 μl spore suspension etc., until about 0.005 μM was reached. Two replicates per pathogen were performed. […] Inhibition of fungal growth was defined as little to no spore germination without detectable hyphae growth. The bioactivity of Pps-AMP1 mature peptide against these fungal pathogens is shown below. The IC90 concentration represents that concentration at which 90% of fungal growth is inhibited.

[3] = test system: Fusarium verticilloides; assay: as above; details: concentration at which 90% of fungal growth is inhibited, 48 hour incubation at 28° C.
Method: as §1

[4] = test system: Neurospora crassa; assay: as above; details: concentration at which 90% of fungal growth is inhibited, 48 hour incubation at 28° C.
Method: as §1

Compound | inhibition of fungal growth ([1]; 0.023 μM) | inhibition of fungal growth ([1]; 17–0.07 μM) | IC90 [2] [nM] | IC90 [3] [nM] | IC90 [4] [nM] | inhibition of fungal growth ([1]; 2.5 μM - 0.005 μM) | inhibition of fungal growth ([1]; 5 μM) | inhibition of fungal growth ([1]; 10 μM)
COC(=O)Nc1nc2ccccc2[nH]1 [MBC standard, methyl 2-benzimidazolecarbamate, reference compound] | 0.023 μM - moderate inhibition of fungal growth. | 17–0.07 μM - total inhibition of fungal growth. | – | – | – | – | – | –
Pps-AMP1 mature peptide: mature peptide of Picramnia pentandra defensin clone pps.pk0010.g2, expressed in E. coli, refolded and purified (QRLCERASLTWSGNCGNTAHCDNQCRSWEHAQHGACHVRGGKHMCFCYFNC) | – | – | 2500 | 600 | 50 | 2.5 μM - 0.005 μM no inhibition of fungal growth. | 5 μM - moderate inhibiton of fungal growth. | 10 μM - total inhibition of fungal growth.
